ChEMBL document CHEMBL1201862, “PubChem BioAssay data set” (2004)
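Tested at 5 concentrations; 48 h exposure; 96-well plates; endpoints linearly interpolated, else capped at highest concentration. At the GI50, growth is halved.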 Active and inactive are the calls of the source. Rule as the data show it: active = GI50 up to about 1.1 µM and inactive = higher.

How the values were obtained:
Assay in all cases: NCI-60 cell line screen, 48 h
EKVX = test system: EKVX
NCI/ADR-RES = test system: NCI/ADR-RES
BT-549 = test system: BT-549
LOX IMVI = test system: LOX IMVI
OVCAR-3 = test system: OVCAR-3
RPMI-8226 = test system: RPMI-8226
U-251 = test system: U-251
TK-10 = test system: TK-10
SR = test system: SR
RXF 393 = test system: RXF 393
IGROV-1 = test system: IGROV-1
786-0 = test system: 786-0
Hs-578T = test system: Hs-578T
MOLT-4 = test system: MOLT-4
HOP-92 = test system: HOP-92
SF-295 = test system: SF-295
SK-MEL-2 = test system: SK-MEL-2
SNB-19 = test system: SNB-19
COLO 205 = test system: COLO 205
UACC-62 = test system: UACC-62
MCF7 = test system: MCF7
NCI-H460 = test system: NCI-H460
OVCAR-5 = test system: OVCAR-5
OVCAR-8 = test system: OVCAR-8
MDA-N = test system: MDA-N
K562 = test system: K562
NCI-H226 = test system: NCI-H226
ACHN = test system: ACHN
KM12 = test system: KM12
CAKI-1 = test system: CAKI-1
UO-31 = test system: UO-31
T47D = test system: T47D
PC-3 = test system: PC-3
A498 = test system: A498
SK-MEL-28 = test system: SK-MEL-28
NCI-H522 = test system: NCI-H522
A549 = test system: A549
Malme-3M = test system: Malme-3M
SK-MEL-5 = test system: SK-MEL-5
M14 = test system: M14
HCT-15 = test system: HCT-15
HT-29 = test system: HT-29
HCT-116 = test system: HCT-116
MDA-MB-231 = test system: MDA-MB-231
OVCAR-4 = test system: OVCAR-4
DU-145 = test system: DU-145
NCI-H23 = test system: NCI-H23
HOP-62 = test system: HOP-62
MDA-MB-435 = test system: MDA-MB-435
SNB-75 = test system: SNB-75
SF-268 = test system: SF-268
SN12C = test system: SN12C
UACC-257 = test system: UACC-257
SW-620 = test system: SW-620
HL-60 = test system: HL-60
CCRF-CEM = test system: CCRF-CEM
SK-OV-3 = test system: SK-OV-3
SF-539 = test system: SF-539
HCC 2998 = test system: HCC 2998

Structure (SMILES): O=[As](O)(O)c1ccc(NCc2ccccc2)cc1
- GI50 (EKVX): > 100 µM (inactive)
- GI50 (NCI/ADR-RES): > 100 µM (inactive)
- GI50 (BT-549): > 100 µM (inactive)
- GI50 (LOX IMVI): > 100 µM (inactive)
- GI50 (OVCAR-3): > 100 µM (inactive)
- GI50 (RPMI-8226): > 100 µM (inactive)
- GI50 (U-251): > 100 µM (inactive)
- GI50 (TK-10): > 100 µM (inactive)
- GI50 (SR): > 100 µM (inactive)
- GI50 (RXF 393): > 100 µM (inactive)
- GI50 (IGROV-1): > 100 µM (inactive)
- GI50 (786-0): > 100 µM (inactive)
- GI50 (Hs-578T): 58.9 µM (inactive)
- GI50 (MOLT-4): > 100 µM (inactive)
- GI50 (HOP-92): > 100 µM (inactive)
- GI50 (SF-295): > 100 µM (inactive)
- GI50 (SK-MEL-2): > 100 µM (inactive)
- GI50 (SNB-19): > 100 µM (inactive)
- GI50 (COLO 205): > 100 µM (inactive)
- GI50 (UACC-62): > 100 µM (inactive)
- GI50 (MCF7): > 100 µM (inactive)
- GI50 (NCI-H460): > 100 µM (inactive)
- GI50 (OVCAR-5): > 100 µM (inactive)
- GI50 (OVCAR-8): > 100 µM (inactive)
- GI50 (MDA-N): > 100 µM (inactive)
- GI50 (K562): > 100 µM (inactive)
- GI50 (NCI-H226): > 100 µM (inactive)
- GI50 (ACHN): > 100 µM (inactive)
- GI50 (KM12): > 100 µM (inactive)
- GI50 (CAKI-1): > 100 µM (inactive)
- GI50 (UO-31): > 100 µM (inactive)
- GI50 (T47D): > 100 µM (inactive)
- GI50 (PC-3): > 100 µM (inactive)
- GI50 (A498): > 100 µM (inactive)
- GI50 (SK-MEL-28): > 100 µM (inactive)
- GI50 (NCI-H522): 76.9 µM (inactive)
- GI50 (A549): > 100 µM (inactive)
- GI50 (Malme-3M): > 100 µM (inactive)
- GI50 (SK-MEL-5): > 100 µM (inactive)
- GI50 (M14): > 100 µM (inactive)
- GI50 (HCT-15): > 100 µM
- GI50 (HT-29): > 100 µM (inactive)
- GI50 (HCT-116): > 100 µM (inactive)
- GI50 (MDA-MB-231): > 100 µM (inactive)
- GI50 (OVCAR-4): > 100 µM (inactive)
- GI50 (DU-145): > 100 µM (inactive)
- GI50 (NCI-H23): 92.9 µM (inactive)
- GI50 (HOP-62): > 100 µM (inactive)
- GI50 (MDA-MB-435): > 100 µM (inactive)
- GI50 (SNB-75): > 100 µM (inactive)
- GI50 (SF-268): > 100 µM (inactive)
- GI50 (SN12C): > 100 µM (inactive)
- GI50 (UACC-257): > 100 µM (inactive)

Structure (SMILES): Cc1ccc(N)cc1.O=S(=O)(O)/C(=C\c1ccccc1)c1ccccc1
- GI50 (EKVX): > 100 µM (inactive)
- GI50 (NCI/ADR-RES): > 100 µM (inactive)
- GI50 (BT-549): > 100 µM (inactive)
- GI50 (LOX IMVI): > 100 µM (inactive)
- GI50 (OVCAR-3): > 100 µM (inactive)
- GI50 (RPMI-8226): > 100 µM (inactive)
- GI50 (U-251): > 100 µM (inactive)
- GI50 (TK-10): > 100 µM (inactive)
- GI50 (SR): > 100 µM (inactive)
- GI50 (RXF 393): > 100 µM (inactive)
- GI50 (IGROV-1): > 100 µM (inactive)
- GI50 (SW-620): > 100 µM (inactive)
- GI50 (786-0): > 100 µM (inactive)
- GI50 (Hs-578T): > 100 µM (inactive)
- GI50 (MOLT-4): > 100 µM (inactive)
- GI50 (HOP-92): > 100 µM (inactive)
- GI50 (SF-295): > 100 µM (inactive)
- GI50 (SK-MEL-2): > 100 µM (inactive)
- GI50 (SNB-19): > 100 µM (inactive)
- GI50 (COLO 205): > 100 µM (inactive)
- GI50 (UACC-62): 44 µM (inactive)
- GI50 (MCF7): > 100 µM (inactive)
- GI50 (HL-60): 53.2 µM (inactive)
- GI50 (NCI-H460): > 100 µM (inactive)
- GI50 (OVCAR-5): > 100 µM (inactive)
- GI50 (OVCAR-8): > 100 µM (inactive)
- GI50 (MDA-N): > 100 µM (inactive)
- GI50 (K562): > 100 µM (inactive)
- GI50 (NCI-H226): > 100 µM (inactive)
- GI50 (ACHN): > 100 µM (inactive)
- GI50 (KM12): 71.8 µM (inactive)
- GI50 (CAKI-1): > 100 µM (inactive)
- GI50 (CCRF-CEM): > 100 µM (inactive)
- GI50 (UO-31): 70.6 µM (inactive)
- GI50 (T47D): > 100 µM (inactive)
- GI50 (PC-3): > 100 µM (inactive)
- GI50 (A498): > 100 µM (inactive)
- GI50 (SK-MEL-28): > 100 µM (inactive)
- GI50 (NCI-H522): > 100 µM (inactive)
- GI50 (A549): > 100 µM (inactive)
- GI50 (Malme-3M): > 100 µM (inactive)
- GI50 (SK-MEL-5): 93.3 µM (inactive)
- GI50 (M14): > 100 µM (inactive)
- GI50 (HCT-15): > 100 µM
- GI50 (HT-29): > 100 µM (inactive)
- GI50 (SK-OV-3): > 100 µM (inactive)
- GI50 (SF-539): > 100 µM (inactive)
- GI50 (HCT-116): > 100 µM (inactive)
- GI50 (MDA-MB-231): > 100 µM (inactive)
- GI50 (OVCAR-4): > 100 µM (inactive)
- GI50 (DU-145): > 100 µM (inactive)
- GI50 (NCI-H23): > 100 µM (inactive)
- GI50 (HOP-62): > 100 µM (inactive)
- GI50 (MDA-MB-435): > 100 µM (inactive)
- GI50 (SNB-75): > 100 µM (inactive)
- GI50 (SF-268): > 100 µM (inactive)
- GI50 (SN12C): > 100 µM (inactive)
- GI50 (UACC-257): > 100 µM (inactive)

Structure (SMILES): N#CC(C#N)=C1c2ccccc2C(=NN)c2ccccc21
- GI50 (NCI/ADR-RES): > 100 µM (inactive)
- GI50 (BT-549): > 100 µM (inactive)
- GI50 (OVCAR-3): > 100 µM (inactive)
- GI50 (RPMI-8226): > 100 µM (inactive)
- GI50 (U-251): 37.3 µM (inactive)
- GI50 (TK-10): > 100 µM (inactive)
- GI50 (SR): > 100 µM (inactive)
- GI50 (RXF 393): 27.5 µM (inactive)
- GI50 (IGROV-1): > 100 µM (inactive)
- GI50 (SW-620): > 100 µM (inactive)
- GI50 (786-0): > 54.8 µM (inactive)
- GI50 (Hs-578T): 9.57 µM (inactive)
- GI50 (MOLT-4): > 100 µM (inactive)
- GI50 (HOP-92): > 100 µM (inactive)
- GI50 (SF-295): 4.83 µM (inactive)
- GI50 (SK-MEL-2): > 100 µM (inactive)
- GI50 (SNB-19): > 100 µM (inactive)
- GI50 (COLO 205): > 100 µM (inactive)
- GI50 (UACC-62): > 43.5 µM (inactive)
- GI50 (MCF7): > 100 µM (inactive)
- GI50 (OVCAR-5): > 100 µM (inactive)
- GI50 (OVCAR-8): > 100 µM (inactive)
- GI50 (MDA-N): > 100 µM (inactive)
- GI50 (K562): > 100 µM (inactive)
- GI50 (NCI-H226): > 100 µM (inactive)
- GI50 (ACHN): 12.3 µM (inactive)
- GI50 (KM12): > 100 µM (inactive)
- GI50 (CAKI-1): > 25.7 µM (inactive)
- GI50 (CCRF-CEM): > 100 µM (inactive)
- GI50 (UO-31): > 100 µM (inactive)
- GI50 (T47D): 0.508 µM (active)
- GI50 (PC-3): > 100 µM (inactive)
- GI50 (A498): > 28.7 µM (inactive)
- GI50 (SK-MEL-28): > 100 µM (inactive)
- GI50 (NCI-H522): 3.58 µM (inactive)
- GI50 (Malme-3M): 92.9 µM (inactive)
- GI50 (SK-MEL-5): 14.8 µM (inactive)
- GI50 (M14): 88.1 µM (inactive)
- GI50 (HCT-15): > 100 µM
- GI50 (HT-29): > 100 µM (inactive)
- GI50 (SK-OV-3): > 100 µM (inactive)
- GI50 (SF-539): > 56.1 µM (inactive)
- GI50 (MDA-MB-231): > 79.8 µM (inactive)
- GI50 (DU-145): 5.25 µM (inactive)
- GI50 (HCC 2998): > 100 µM (inactive)
- GI50 (HOP-62): 10.6 µM (inactive)
- GI50 (MDA-MB-435): > 100 µM (inactive)
- GI50 (SNB-75): > 43.9 µM (inactive)
- GI50 (SF-268): > 61.4 µM (inactive)
- GI50 (SN12C): > 100 µM (inactive)
- GI50 (UACC-257): > 100 µM (inactive)
